Measured values as given in PubChem BioAssay (NCI).
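Exposure lasted 48 hours, with cells grown in 96-well plates and compounds tested at five concentrations. Abbreviation: GI50, concentration required for 50% inhibition of growth. TGI is the concentration that stops growth completely.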 Where a SMILES comes first, the peptide text is derived from it.

How the values were obtained:
Assay in all cases: NCI anticancer screen, dose series, 48 h
SF-295 CNS = test system: SF-295 CNS
NCI-H460 lung = test system: NCI-H460 lung
M14 melanoma = test system: M14 melanoma
CAKI-1 renal = test system: CAKI-1 renal
MALME-3M melanoma = test system: MALME-3M melanoma
KM12 colon = test system: KM12 colon
OVCAR-8 ovarian = test system: OVCAR-8 ovarian
UACC-62 melanoma = test system: UACC-62 melanoma
786-0 renal = test system: 786-0 renal

SMILES	TGI (SF-295 CNS)	TGI (NCI-H460 lung)	TGI (M14 melanoma)	TGI (CAKI-1 renal)	TGI (MALME-3M melanoma)	TGI (KM12 colon)	TGI (OVCAR-8 ovarian)	TGI (UACC-62 melanoma)	TGI (786-0 renal)	GI50 (SF-295 CNS)	GI50 (MALME-3M melanoma)	GI50 (UACC-62 melanoma)	GI50 (786-0 renal)	GI50 (NCI-H460 lung)	GI50 (M14 melanoma)	GI50 (CAKI-1 renal)	GI50 (KM12 colon)	GI50 (OVCAR-8 ovarian)
CCC(C)C1NC(=O)C2CCCN2C(=O)CNC(=O)C(C)NC(=O)C(Cc2ccccc2)NC(=O)C(C(C)C)NC1=O (stereo unspecified) (cyclo(GPIVFA); configuration not given here)	> 100 µM	> 100 µM	> 100 µM	> 100 µM	> 100 µM	> 100 µM	> 100 µM	> 100 µM	> 100 µM	–	–	–	–	–	–	–	–	–
CCCCc1n(Cc2ccc3ccccc3c2)cc[n+]1Cc1ccc2ccccc2c1	2.65 µM	–	–	–	2.64 µM	–	–	2.08 µM	2.97 µM	1.3 µM	1.18 µM	0.705 µM	1.52 µM	–	–	–	–	–
COc1ccc2c(c1)[n+]([O-])c(-c1ccc(C)cc1)c(N)[n+]2[O-]	> 100 µM	> 100 µM	> 100 µM	> 100 µM	> 100 µM	> 100 µM	> 100 µM	–	> 100 µM	–	–	–	–	–	–	–	–	–
O=[N+]([O-])c1ccccc1C=NC12CC3CC(CC(C3)C1)C2	> 100 µM	> 100 µM	> 100 µM	> 100 µM	> 100 µM	> 100 µM	> 100 µM	> 100 µM	> 100 µM	–	–	–	–	–	–	–	–	–
COc1ccc(-c2cc(-c3cc(Cl)cc(Br)c3O)[nH]c(=O)n2)cc1	32.7 µM	34.6 µM	43.3 µM	37.2 µM	42.3 µM	41.3 µM	37.2 µM	29.4 µM	32 µM	–	–	–	–	–	–	–	–	–
CC(=O)[CH-]C(=O)c1ccccc1.CC(=O)[CH-]C(=O)c1ccccc1.Cl.[O-]c1ccccn1.[O-]c1ccccn1.[Ti+4]	> 100 µM	> 100 µM	> 100 µM	> 100 µM	> 100 µM	> 100 µM	> 100 µM	> 100 µM	> 100 µM	47.6 µM	> 100 µM	> 100 µM	> 100 µM	> 100 µM	> 100 µM	> 100 µM	> 100 µM	> 100 µM
Cc1ccc(-c2cc(=O)c3cc(C)c(C)c(C(=O)O)c3o2)cc1N	> 100 µM	> 100 µM	> 100 µM	> 100 µM	> 100 µM	> 100 µM	> 100 µM	> 100 µM	> 100 µM	–	–	–	–	–	–	–	–	–
C#CC1(O)c2ccccc2C(=O)c2ccccc21	> 100 µM	> 100 µM	–	> 100 µM	> 100 µM	> 100 µM	> 100 µM	–	> 100 µM	–	–	–	–	–	–	–	–	–
Clc1ccc2nc(-c3ccccc3)nc(Cl)c2c1	> 100 µM	> 100 µM	–	54.9 µM	95.1 µM	> 100 µM	> 100 µM	> 100 µM	> 100 µM	–	–	–	–	–	–	–	–	–
CCCCN(CCCC)CCC(O)c1cc2c(Cl)cc(Cl)cc2c2cc(C(F)(F)F)ccc12 (stereo unspecified)	25.4 µM	25.5 µM	23.6 µM	29.3 µM	30 µM	–	27.5 µM	29.9 µM	25.7 µM	–	–	–	–	–	–	–	–	–
Cc1ccc(NC(=S)SCCC(=O)O)cc1	> 100 µM	> 100 µM	> 100 µM	> 100 µM	–	> 100 µM	> 100 µM	–	> 100 µM	–	–	–	–	–	–	–	–	–
CC12CO[C@@](C)(CC(S(=O)(=O)c3ccccc3)C1)O2 (stereo partly specified)	> 100 µM	> 100 µM	> 100 µM	–	> 100 µM	> 100 µM	> 100 µM	> 100 µM	> 100 µM	–	–	–	–	–	–	–	–	–
C=CC1(NS(=O)(=O)c2ccc(C)cc2)CCC(C(C)(C)C)CC1 (stereo unspecified)	–	> 100 µM	> 100 µM	> 100 µM	> 100 µM	> 100 µM	> 100 µM	> 100 µM	> 100 µM	–	–	–	–	–	–	–	–	–
O=C(CC1(O)C(=O)Nc2ccccc21)c1ccc(O)cc1 (stereo unspecified)	> 100 µM	> 100 µM	> 100 µM	> 100 µM	> 100 µM	> 100 µM	–	> 100 µM	> 100 µM	–	–	–	–	–	–	–	–	–
CCN(CC)C(=O)N1CCN(C=S)CC1	–	> 100 µM	> 100 µM	–	> 100 µM	> 100 µM	> 100 µM	> 100 µM	> 100 µM	–	–	–	–	–	–	–	–	–
O=[N+]([O-])c1cc(Cl)ccc1OCc1ccccc1	> 100 µM	> 100 µM	> 100 µM	–	> 100 µM	> 100 µM	> 100 µM	> 100 µM	> 100 µM	–	–	–	–	–	–	–	–	–
CC1C[C@]2(C[C@@H](C)C(=O)O2)O[C@@H]2CC3(C)[C@@H]4CCC5C(C)(C)OC(=O)C[C@H]6OO[C@]4(CC[C@]3(C)C12)CC56O (stereo partly specified)	> 100 µM	> 100 µM	> 100 µM	–	> 100 µM	–	> 100 µM	> 100 µM	> 100 µM	–	–	–	–	–	–	–	–	–
CN[C@@H](C)[C@H](N)c1ccccc1	> 100 µM	> 100 µM	> 100 µM	> 100 µM	–	> 100 µM	> 100 µM	> 100 µM	> 100 µM	–	–	–	–	–	–	–	–	–
C=C1C2CC(OC(C)=O)C3(C)C(c4ccoc4)OC(=O)[C@@H](O)[C@]13OC1C[C@H](OC(C)=O)C(C)(C)[C@H](CC(=O)OC)[C@]12C (stereo partly specified)	> 100 µM	> 100 µM	> 100 µM	–	–	> 100 µM	> 100 µM	> 100 µM	> 100 µM	–	–	–	–	–	–	–	–	–
